Among the data in patent US20240116985A1, “STAPLED PEPTIDES AND METHODS THEREOF” (priority 2020, published 2024) are IC50 values, retold here.

Where two headings read alike, the source gives them in different places.

For the assay, the target named is T1, full-length beta-Catenin (Uniprot ID P35222) (Homo sapiens, UniProt P35222).
T1 construct: 10 nM full-length beta-Catenin (Uniprot ID P35222)
T1 sequence (P35222 1-781): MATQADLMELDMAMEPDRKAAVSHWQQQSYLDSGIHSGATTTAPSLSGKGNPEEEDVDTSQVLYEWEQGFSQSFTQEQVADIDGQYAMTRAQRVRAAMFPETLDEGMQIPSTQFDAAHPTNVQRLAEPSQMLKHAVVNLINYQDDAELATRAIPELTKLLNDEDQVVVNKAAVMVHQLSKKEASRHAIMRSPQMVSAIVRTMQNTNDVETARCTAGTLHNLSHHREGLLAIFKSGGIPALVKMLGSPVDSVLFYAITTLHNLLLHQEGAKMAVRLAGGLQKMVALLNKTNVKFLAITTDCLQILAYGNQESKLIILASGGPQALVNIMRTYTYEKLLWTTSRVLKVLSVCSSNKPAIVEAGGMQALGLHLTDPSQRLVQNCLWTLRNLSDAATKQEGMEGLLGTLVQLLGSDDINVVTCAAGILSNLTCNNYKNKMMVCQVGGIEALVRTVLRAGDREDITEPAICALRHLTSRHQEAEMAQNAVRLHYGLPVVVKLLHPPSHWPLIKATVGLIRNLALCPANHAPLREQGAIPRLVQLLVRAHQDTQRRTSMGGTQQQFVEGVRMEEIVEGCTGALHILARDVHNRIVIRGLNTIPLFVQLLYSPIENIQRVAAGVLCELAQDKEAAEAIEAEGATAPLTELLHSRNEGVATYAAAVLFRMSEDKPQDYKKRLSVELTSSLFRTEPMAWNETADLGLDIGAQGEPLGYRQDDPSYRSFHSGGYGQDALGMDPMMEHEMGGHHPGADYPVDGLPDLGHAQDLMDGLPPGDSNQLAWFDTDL
Briefly: Fluorescence polarization IC50 (beta-catenin / 5FAM-TCF4 10-53 competition). Type of assay: binding. Particulars: fluorescence polarization. (In general: Fluorescence polarisation rises when a labelled molecule tumbles more slowly, as on binding a larger partner.)

[1] abbreviates: beta-catenin, read-out: FP EC50.

As to `CC(=O)N1CCC[C@]12CC=CCCCC1(CCCC=CCCCOC(=O)N3CC[C@@](C(=O)N[C@@H](Cc4ccsc4)C(=O)N[C@@H](Cc4cccc(F)c4F)C(=O)N[C@@H](CCC(N)=O)C(N)=O)(C3)NC(=O)[C@H](CC(C)C)NC(=O)[C@H](Cc3ccccc3)NC(=O)[C@H](C)NC(=O)[C@H](C)NC(=O)[C@H](CC(=O)O)NC(=O)[C@H](CC(=O)O)NC1=O)NC(=O)[C@H](CC(C)(C)C)NC(=O)[C@H](CC(=O)O)NC2=O` (stereo partly drawn) [I-1425, Ac-PL3-Asp-Npg-B5-Asp-Asp-Ala-Ala-Phe-Leu-PyrS2-3Thi-23FF-Gln-NH2], the IC50 (read-out: beta-Catenin FP IC50) came to 239 nM.
Same read-out and setting: to `CC(=O)N1CCC[C@]12CC=CCCCC1(CCCC=CCCCOC(=O)N3CC[C@@](C(=O)N[C@@H](Cc4ccsc4)C(=O)N[C@@H](Cc4cccc(F)c4F)C(=O)N[C@@H](CO)C(N)=O)(C3)NC(=O)[C@H](CC(C)C)NC(=O)[C@H](Cc3ccccc3)NC(=O)[C@H](C)NC(=O)[C@H](C)NC(=O)[C@H](CC(=O)O)NC(=O)[C@H](CC(=O)O)NC1=O)NC(=O)[C@H](CC(C)(C)C)NC(=O)[C@H](CC(=O)O)NC2=O` (stereo partly drawn) [I-1426, Ac-PL3-Asp-Npg-B5-Asp-Asp-Ala-Ala-Phe-Leu-PyrS2-3Thi-23FF-Ser-NH2] belongs 203 nM.
Still for that read-out and setting: to `CC(=O)N1CCC[C@]12CC=CCCCC1(CCCC=CCCCOC(=O)N3CC[C@@](C(=O)N[C@@H](Cc4ccsc4)C(=O)N[C@@H](Cc4ccc(F)c(F)c4)C(=O)N[C@@H](CCC(N)=O)C(N)=O)(C3)NC(=O)[C@H](CC(C)C)NC(=O)[C@H](Cc3ccccc3)NC(=O)[C@H](C)NC(=O)[C@H](C)NC(=O)[C@H](CC(=O)O)NC(=O)[C@H](CC(=O)O)NC1=O)NC(=O)[C@H](CC(C)(C)C)NC(=O)[C@H](CC(=O)O)NC2=O` (stereo partly drawn) [I-1427, Ac-PL3-Asp-Npg-B5-Asp-Asp-Ala-Ala-Phe-Leu-PyrS2-3Thi-34FF-Gln-NH2] belongs 33 nM.
For the compound `CC(=O)N1CCC[C@]12CC=CCCCC1(CCCC=CCCCOC(=O)N3CC[C@@](C(=O)N[C@@H](Cc4ccsc4)C(=O)N[C@@H](Cc4ccc(F)c(F)c4)C(=O)N[C@@H](CO)C(N)=O)(C3)NC(=O)[C@H](CC(C)C)NC(=O)[C@H](Cc3ccccc3)NC(=O)[C@H](C)NC(=O)[C@H](C)NC(=O)[C@H](CC(=O)O)NC(=O)[C@H](CC(=O)O)NC1=O)NC(=O)[C@H](CC(C)(C)C)NC(=O)[C@H](CC(=O)O)NC2=O` (stereo partly drawn) [I-1428, Ac-PL3-Asp-Npg-B5-Asp-Asp-Ala-Ala-Phe-Leu-PyrS2-3Thi-34FF-Ser-NH2], the IC50 (read-out: beta-Catenin FP IC50) was 41 nM.
Regarding `CC(=O)N1CCC[C@]12CC=CCCCC1(CCCC=CCCCOC(=O)N3CC[C@@](C(=O)N[C@@H](Cc4ccsc4)C(=O)N[C@@H](Cc4cn(C)c5ccccc45)C(=O)N[C@@H](CCC(N)=O)C(N)=O)(C3)NC(=O)[C@H](CC(C)C)NC(=O)[C@H](Cc3ccccc3)NC(=O)[C@H](C)NC(=O)[C@H](C)NC(=O)[C@H](CC(=O)O)NC(=O)[C@H](CC(=O)O)NC1=O)NC(=O)[C@H](CC(C)(C)C)NC(=O)[C@H](CC(=O)O)NC2=O` (stereo partly drawn) [I-1433, Ac-PL3-Asp-Npg-B5-Asp-Asp-Ala-Ala-Phe-Leu-PyrS2-3Thi-1MeW-Gln-NH2], the IC50 (read-out: beta-Catenin FP IC50) came to 71 nM.
As for `CC(=O)N1CCC[C@]12CC=CCCCC1(CCCC=CCCCOC(=O)N3CC[C@@](C(=O)N[C@@H](Cc4ccsc4)C(=O)N[C@@H](Cc4cn(C)c5ccccc45)C(=O)N[C@@H](CO)C(N)=O)(C3)NC(=O)[C@H](CC(C)C)NC(=O)[C@H](Cc3ccccc3)NC(=O)[C@H](C)NC(=O)[C@H](C)NC(=O)[C@H](CC(=O)O)NC(=O)[C@H](CC(=O)O)NC1=O)NC(=O)[C@H](CC(C)(C)C)NC(=O)[C@H](CC(=O)O)NC2=O` (stereo partly drawn) [I-1434, Ac-PL3-Asp-Npg-B5-Asp-Asp-Ala-Ala-Phe-Leu-PyrS2-3Thi-1MeW-Ser-NH2], the IC50 (read-out: beta-Catenin FP IC50) was found to be 83 nM.
`CC(=O)N1CCC[C@]12CC=CCCCC1(CCCC=CCCCOC(=O)N3CC[C@@](C(=O)N[C@@H](Cc4ccsc4)C(=O)N[C@@H](Cc4c[nH]c5cc(Cl)ccc45)C(=O)N[C@@H](CCC(N)=O)C(N)=O)(C3)NC(=O)[C@H](CC(C)C)NC(=O)[C@H](Cc3ccccc3)NC(=O)[C@H](C)NC(=O)[C@H](C)NC(=O)[C@H](CC(=O)O)NC(=O)[C@H](CC(=O)O)NC1=O)NC(=O)[C@H](CC(C)(C)C)NC(=O)[C@H](CC(=O)O)NC2=O` (stereo partly drawn) [I-1435, Ac-PL3-Asp-Npg-B5-Asp-Asp-Ala-Ala-Phe-Leu-PyrS2-3Thi-6C1W-Gln-NH2]: the IC50 (read-out: beta-Catenin FP IC50) turned out to be 90 nM.
As to `CC(=O)N1CCC[C@]12CC=CCCCC1(CCCC=CCCCOC(=O)N3CC[C@@](C(=O)N[C@@H](Cc4ccsc4)C(=O)N[C@@H](Cc4c[nH]c5cc(Cl)ccc45)C(=O)N[C@@H](CO)C(N)=O)(C3)NC(=O)[C@H](CC(C)C)NC(=O)[C@H](Cc3ccccc3)NC(=O)[C@H](C)NC(=O)[C@H](C)NC(=O)[C@H](CC(=O)O)NC(=O)[C@H](CC(=O)O)NC1=O)NC(=O)[C@H](CC(C)(C)C)NC(=O)[C@H](CC(=O)O)NC2=O` (stereo partly drawn) [I-1436, Ac-PL3-Asp-Npg-B5-Asp-Asp-Ala-Ala-Phe-Leu-PyrS2-3Thi-6C1W-Ser-NH2], where the note is “read-out: beta-Catenin FP IC50”, the IC50 is 121 nM.
Still for that read-out and setting: the value for `CC(=O)N1CCC[C@]12CC=CCCCC1(CCCC=CCCCOC(=O)N3CC[C@@](C(=O)N[C@@H](Cc4ccsc4)C(=O)N[C@@H](Cc4csc5ccccc45)C(=O)N[C@@H](CCC(N)=O)C(N)=O)(C3)NC(=O)[C@H](CC(C)C)NC(=O)[C@H](Cc3ccccc3)NC(=O)[C@H](C)NC(=O)[C@H](C)NC(=O)[C@H](Cc3ccccc3)NC(=O)[C@H](CC(=O)O)NC1=O)NC(=O)[C@H](CC(C)(C)C)NC(=O)[C@H](CC(=O)O)NC2=O` (stereo partly drawn) [I-1441, Ac-PL3-Asp-Npg-B5-Asp-Phe-Ala-Ala-Phe-Leu-PyrS2-3Thi-BztA-Gln-NH2] was 327 nM.
Same read-out and setting: to `CC(=O)N1CCC[C@]12CC=CCCCC1(CCCC=CCCCOC(=O)N3CC[C@@](C(=O)N[C@@H](Cc4ccsc4)C(=O)N[C@@H](Cc4csc5ccccc45)C(=O)N[C@@H](CCC(N)=O)C(N)=O)(C3)NC(=O)[C@H](CC(C)C)NC(=O)[C@H](Cc3ccccc3)NC(=O)[C@H](C)NC(=O)[C@H](C)NC(=O)[C@H](CC(C)C)NC(=O)[C@H](CC(=O)O)NC1=O)NC(=O)[C@H](CC(C)(C)C)NC(=O)[C@H](CC(=O)O)NC2=O` (stereo partly drawn) [I-1444, Ac-PL3-Asp-Npg-B5-Asp-Leu-Ala-Ala-Phe-Leu-PyrS2-3Thi-BztA-Gln-NH2] belongs 6560 nM.
Regarding `CC(=O)N1CCC[C@]12CC=CCCCC1(CCCC=CCCCOC(=O)N3CC[C@@](C(=O)N[C@@H](Cc4ccccc4Cl)C(=O)N[C@@H](Cc4csc5ccccc45)C(=O)N[C@@H](CCC(N)=O)C(N)=O)(C3)NC(=O)[C@H](CC(N)=O)NC(=O)[C@H](Cc3ccccc3)NC(=O)[C@H](C)NC(=O)[C@H](C)NC(=O)[C@H](CN(CC(=O)O)Cc3c(F)c(F)c(F)c(F)c3F)NC(=O)[C@H](CC(=O)O)NC1=O)NC(=O)[C@H](CC(C)(C)C)NC(=O)[C@H](CC(=O)O)NC2=O` (stereo partly drawn) [I-1448, Ac-PL3-Asp-Npg-B5-Asp-[Pfbn]GA-Ala-Ala-Phe-Asn-PyrS2-2C1F-BztA-Gln-NH2], the IC50 was 20 nM under setting [1] and 20 nM (read-out: beta-Catenin FP IC50).
On to `CC(=O)N1CCC[C@]12CC=CCCCC1(CCCC=CCCCOC(=O)N3CC[C@@](C(=O)N[C@@H](Cc4ccccc4Cl)C(=O)N[C@@H](Cc4csc5ccccc45)C(=O)N[C@@H](CCC(N)=O)C(N)=O)(C3)NC(=O)[C@H](CC(N)=O)NC(=O)[C@H](Cc3ccccc3)NC(=O)[C@H](C)NC(=O)[C@H](C)NC(=O)[C@H](CN(CC(=O)O)Cc3c(F)c(F)c(F)c(F)c3F)NC(=O)[C@H](CC(=O)O)NC1=O)NC(=O)[C@H](CC(C)(C)C)NC(=O)[C@H](CC(=O)O)NC2=O` (stereo partly drawn) [I-1450, Ac-PL3-Asp-Npg-B5-Asp-[Pfbn]GA-Ala-Ala-Phe-Asn-PyrS2-2C1F-BztA-Gln-NH2], for which the IC50 reads like this: under setting [1], 11 nM; (read-out: beta-Catenin FP IC50) 11 nM.
On to `CC(=O)N1CCC[C@]12CC=CCCCC1(CCCC=CCCCCCC[C@@](C)(C(=O)N[C@@H](Cc3ccsc3)C(=O)N[C@@H](Cc3csc4ccccc34)C(=O)N[C@@H](CCC(N)=O)C(N)=O)NC(=O)[C@H](CC(N)=O)NC(=O)[C@H](Cc3ccccc3)NC(=O)[C@H](C)NC(=O)[C@H](C)NC(=O)[C@H](CN(CC(=O)O)C(C)C)NC(=O)[C@H](CC(=O)O)NC1=O)NC(=O)[C@H](CC(C)(C)C)NC(=O)[C@H](CC(=O)O)NC2=O` (stereo partly drawn) [I-1452, Ac-PL3-Asp-Npg-B5-Asp-[iPr]GA-Ala-Ala-Phe-Asn-S8-3Thi-BztA-Gln-NH2], for which the IC50 is, setting by setting: under setting [1], 66 nM; (read-out: beta-Catenin FP IC50) 66 nM.
Turning to `CC(=O)N1CCC[C@]12CC=CCCCC1(CCCC=CCCCCCC[C@@](C)(C(=O)N[C@@H](Cc3ccsc3)C(=O)N[C@@H](Cc3csc4ccccc34)C(=O)N[C@@H](CCC(N)=O)C(N)=O)NC(=O)[C@H](CC(N)=O)NC(=O)[C@H](Cc3ccccc3)NC(=O)[C@H](C)NC(=O)[C@H](C)NC(=O)[C@H](CN(CC(=O)O)C(C)C)NC(=O)[C@H](CC(=O)O)NC1=O)NC(=O)[C@H](CC(C)(C)C)NC(=O)[C@H](CC(=O)O)NC2=O` (stereo partly drawn) [I-1453, Ac-PL3-Asp-Npg-B5-Asp-[iPr]GA-Ala-Ala-Phe-Asn-S8-3Thi-BztA-Gln-NH2], the IC50 was determined as 52 nM under setting [1] and 52 nM (read-out: beta-Catenin FP IC50).
